From ChEMBL document CHEMBL5543122, “Discovery of HC-7366: An Orally Bioavailable and Efficacious GCN2 Kinase Activator” (J Med Chem, 2024)
Converted amounts (≈) assume the structure as drawn.

Columns and labels:
[1] = molecular target: Mitogen-activated protein kinase kinase kinase 20 (Homo sapiens, UniProt Q9NYL2); assay: Inhibition of ZAK in human MOLM16 cells; format: cell-based
[2] = Cmax in BALB/c mouse at 3 mg/kg, po and 1 mg/kg, iv measured upto 24 hrs; format: ADME, organism-based; conditions: in vivo
[3] = Unbound volume of distribution at steady state in BALB/c mouse at 3 mg/kg, po and 1 mg/kg, iv measured upto 24 hrs; format: ADME, organism-based; conditions: in vivo
[4] = Cmax in Sprague-Dawley rat at 3 mg/kg, po measured upto 24 hrs; format: ADME, organism-based; conditions: in vivo
[5] = Apparent permeability across apical to basolateral in human Caco-2 cells at 5 uM measured after 120 mins by UPLC-MS/MS analysis
[6] = Unbound clearance in Sprague-Dawley rat plasma at 1 mg/kg, iv measured upto 24 hrs; format: ADME, organism-based; conditions: in vivo
HT-1080 [7] = assay: Antitumor activity against human HT-1080 cells xenografted in BALB/c nude mouse assessed as mean tumor growth inhibition at 3 mg/kg administered twice a day for 14 days; format: functional; conditions: HT-1080, 336 h, time 14 day, read-out: TGI
[8] = Protein binding in HEK293 cells assessed as free fraction; format: ADME, cell-based; conditions: human
[9] = molecular target: T1, Dual specificity mitogen-activated protein kinase kinase 5 (Homo sapiens, UniProt Q13163); assay: Inhibition of MAP2K5 in human MOLM16 cells; format: cell-based
T1 sequence (Q13163 whole entry): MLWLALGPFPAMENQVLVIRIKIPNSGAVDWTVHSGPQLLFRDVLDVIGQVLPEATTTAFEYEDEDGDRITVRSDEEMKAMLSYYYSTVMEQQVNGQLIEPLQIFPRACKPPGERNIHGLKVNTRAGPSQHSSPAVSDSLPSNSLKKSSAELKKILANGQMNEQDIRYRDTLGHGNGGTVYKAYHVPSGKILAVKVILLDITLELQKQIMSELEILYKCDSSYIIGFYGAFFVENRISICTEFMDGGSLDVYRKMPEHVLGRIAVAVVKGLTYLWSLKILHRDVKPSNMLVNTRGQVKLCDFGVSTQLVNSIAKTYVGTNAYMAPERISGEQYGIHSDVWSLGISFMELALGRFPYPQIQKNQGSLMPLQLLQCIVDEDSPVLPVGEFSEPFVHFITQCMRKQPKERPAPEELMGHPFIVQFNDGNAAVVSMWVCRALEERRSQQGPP

physchem = conditions: SGF
Description: Thermodynamic solubility in SGF at 1 mg incubated for 24 hrs by UPLC-MS/MS analysis

[10] = Volume of distribution at steady state in BALB/c mouse at 3 mg/kg, po and 1 mg/kg, iv measured upto 24 hrs; format: ADME, organism-based; conditions: in vivo
[11] = Unbound Cmax in Sprague-Dawley rat at 3 mg/kg, po measured upto 24 hrs; format: ADME, organism-based; conditions: in vivo
[12] = Antitumor activity against human MOLM16 cells xenografted in BALB/c nude mouse assessed as tumor growth inhibition at 3 mg/kg administered twice a day for 17 days; format: functional, MOLM-16; conditions: MOLM16, 408 h, time 17 day, read-out: TGI
[13] = Half-life in BALB/c mouse at 3 mg/kg, po and 1 mg/kg, iv measured upto 24 hrs; format: ADME, organism-based; conditions: in vivo
[14] = Toxicity in BALB/c nude mouse xenografted with human HT-1080 cells assessed as change in body weight at 0.3 to 3 mg/kg administered twice a day for 14 days; format: organism-based; conditions: in vivo, 336 h, dose 0.3-3 mg/kg, time 14 day
[15] = molecular target: T2, Eukaryotic translation initiation factor 2-alpha kinase 3 (Homo sapiens, UniProt Q9NZJ5); assay: Inhibition of PEK in human MOLM16 cells; format: cell-based
T2 sequence (Q9NZJ5 whole entry): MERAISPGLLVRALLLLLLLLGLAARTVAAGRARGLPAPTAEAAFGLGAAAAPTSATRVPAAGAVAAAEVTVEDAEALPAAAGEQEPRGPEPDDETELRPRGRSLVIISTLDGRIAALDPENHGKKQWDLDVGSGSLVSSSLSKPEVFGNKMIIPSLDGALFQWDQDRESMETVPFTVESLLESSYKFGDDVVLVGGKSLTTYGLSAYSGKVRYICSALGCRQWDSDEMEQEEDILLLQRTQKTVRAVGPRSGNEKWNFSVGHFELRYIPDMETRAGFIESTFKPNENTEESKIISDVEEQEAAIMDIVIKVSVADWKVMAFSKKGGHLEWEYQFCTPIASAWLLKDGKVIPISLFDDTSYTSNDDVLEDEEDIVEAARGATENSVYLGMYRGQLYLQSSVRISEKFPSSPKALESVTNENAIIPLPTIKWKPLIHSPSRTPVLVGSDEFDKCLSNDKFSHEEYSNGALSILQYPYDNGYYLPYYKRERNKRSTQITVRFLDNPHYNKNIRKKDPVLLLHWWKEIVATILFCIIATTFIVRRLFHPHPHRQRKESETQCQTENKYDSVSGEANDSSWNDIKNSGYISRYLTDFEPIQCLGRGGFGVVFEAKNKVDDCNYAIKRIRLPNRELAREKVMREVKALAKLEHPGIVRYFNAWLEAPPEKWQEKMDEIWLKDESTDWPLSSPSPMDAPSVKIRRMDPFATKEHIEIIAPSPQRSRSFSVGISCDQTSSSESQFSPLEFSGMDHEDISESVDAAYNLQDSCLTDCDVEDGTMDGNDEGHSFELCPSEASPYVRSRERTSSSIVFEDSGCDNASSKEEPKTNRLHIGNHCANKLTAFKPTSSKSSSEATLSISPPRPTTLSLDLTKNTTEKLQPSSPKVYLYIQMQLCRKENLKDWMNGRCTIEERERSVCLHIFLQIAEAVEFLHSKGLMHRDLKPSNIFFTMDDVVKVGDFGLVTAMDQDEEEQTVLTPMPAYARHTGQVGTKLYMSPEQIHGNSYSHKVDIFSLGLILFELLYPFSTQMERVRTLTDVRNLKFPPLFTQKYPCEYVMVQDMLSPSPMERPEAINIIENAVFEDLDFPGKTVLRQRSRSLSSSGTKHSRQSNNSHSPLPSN

[16] = Unbound volume of distribution at steady state in Sprague-Dawley rat at 1 mg/kg, iv measured upto 24 hrs; format: ADME, organism-based; conditions: in vivo
[17] = Antitumor activity against human MOLM16 cells xenografted in BALB/c nude mouse assessed as tumor growth inhibition at 0.3 mg/kg administered twice a day for 17 days; format: functional, MOLM-16; conditions: MOLM16, 408 h, time 17 day, read-out: TGI
HT-1080 [18] = assay: Antitumor activity against human HT-1080 cells xenografted in BALB/c nude mouse assessed as mean tumor growth inhibition at 0.3 mg/kg administered twice a day for 14 days; format: functional; conditions: HT-1080, 336 h, time 14 day, read-out: TGI
[19] = Intrinsic clearance in human hepatocytes assessed per 10^4 cells at 1 uM measured upto 120 mins by UPLC-MS/MS analysis; format: ADME, cell-based, Hepatocyte; conditions: 2 h
[20] = Unbound clearance in BALB/c mouse plasma at 3 mg/kg, po and 1 mg/kg, iv measured upto 24 hrs; format: ADME, organism-based; conditions: in vivo
[21] = Toxicity in BALB/c nude mouse xenografted with human MOLM16 cells assessed as change in body weight at 0.3 to 3 mg/kg administered twice a day for 17 days; format: organism-based; conditions: in vivo, 408 h, dose 0.3-3 mg/kg, time 17 day
[22] = Half-life in Sprague-Dawley rat at 1 mg/kg, iv measured upto 24 hrs; format: ADME, organism-based; conditions: in vivo

Chain of Mitogen-activated protein kinase kinase kinase 20 (Q9NYL2 whole entry): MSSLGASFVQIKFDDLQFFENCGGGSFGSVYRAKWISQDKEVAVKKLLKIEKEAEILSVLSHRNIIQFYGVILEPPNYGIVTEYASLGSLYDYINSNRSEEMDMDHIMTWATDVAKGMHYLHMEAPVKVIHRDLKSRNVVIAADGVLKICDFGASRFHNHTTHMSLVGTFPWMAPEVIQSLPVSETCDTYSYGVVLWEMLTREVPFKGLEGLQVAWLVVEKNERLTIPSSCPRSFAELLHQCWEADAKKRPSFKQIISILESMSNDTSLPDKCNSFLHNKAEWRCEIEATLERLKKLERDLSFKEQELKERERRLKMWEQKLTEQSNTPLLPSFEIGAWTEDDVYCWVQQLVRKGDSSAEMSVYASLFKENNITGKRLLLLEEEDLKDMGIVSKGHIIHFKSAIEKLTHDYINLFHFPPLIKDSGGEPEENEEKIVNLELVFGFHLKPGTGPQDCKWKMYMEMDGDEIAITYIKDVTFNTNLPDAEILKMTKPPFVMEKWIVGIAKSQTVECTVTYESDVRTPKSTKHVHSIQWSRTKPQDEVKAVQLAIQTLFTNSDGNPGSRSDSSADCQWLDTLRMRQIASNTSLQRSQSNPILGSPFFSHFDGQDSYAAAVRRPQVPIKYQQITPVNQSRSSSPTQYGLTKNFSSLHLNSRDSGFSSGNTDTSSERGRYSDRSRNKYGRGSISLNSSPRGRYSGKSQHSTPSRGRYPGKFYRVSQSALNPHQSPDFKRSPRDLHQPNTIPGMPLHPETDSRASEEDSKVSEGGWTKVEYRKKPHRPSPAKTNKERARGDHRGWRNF

Work on `CNC(=O)c1ncn2cc(-c3c(F)ccc(NS(=O)(=O)c4cc(Cl)cnc4OC)c3F)ncc12` yielded an IC50 [1] of 0.047 µM, a Cmax [2] of 26.1 µM and a fVdss [3] of 60 L/kg. It also gave a Cmax [4] of 10.1 µM, a Papp A→B at 2 h, 5 µM [5] of 97 nm/s and a CL free [6] of 17.4 L/h/kg. It also gave an inhibition in vivo at 3 mg/kg (HT-1080 [7]) of 84%, a fraction unbound [8] of 0.35 and an IC50 [9] of 2.9 µM. It also gave a solubility thermodynamic at 24 h (physchem) of 0.89 µM (≈ 0.453 µg/mL), a Vdss [10] of 0.12 L/kg and a fCmax [11] of 7.1 nM. The inhibition in vivo at 3 mg/kg [12] was 98%, the half-life [13] was 10 h and the Activity [14] was “Non-Toxic”. It also gave an IC50 [15] of 5.2 µM, a fVdss [16] of 130 L/kg and an inhibition in vivo at 0.3 mg/kg [17] of 66%. For the same compound, the inhibition in vivo at 0.3 mg/kg (HT-1080 [18]) was 18%, the CLH [19] was 4.7 µL/min and the CL free [20] was 4.2 L/h/kg. For the same compound, the Activity [21] was “Non-Toxic” and the half-life [22] was 6.3 h.
